# How the values were obtained:
# [1] = system: MDA-MB-231 cell-derived organoids; assay: Three-dimensional Matrigel culture, proportion of spherical vs invasive organoids; type: cell-based, human; details: for TGFβ-induced invasive growth of organoids: rhPRG4 0.1, 10, 100 μg/mL, 4-MU 0.5 mM
# Procedure: For three-dimensional culture assays, 50 μl of ice-cooled 33% growth factor-reduced Matrigel (Corning Incorporated, USA) in complete growth medium, consisting of DMEM containing 10% FBS, penicillin, streptomycin and amphotericin B (Invitrogen, Canada), was added per well of a 96-well flat bottom, ultra-low attachment plate (BD Biosciences, Canada) followed by storing the plate for 1 hour in a 5% CO2 humidified incubator at 37° C. to allow formation of a 1 mm-thick Matrigel bed in the well. Next, approximately 400 isolated MDA-MB-231 cells, suspended in 50 μl ice-cooled 50% Matrigel in complete growth medium, were layered on top of the Matrigel bed per well of the 96-well plate and incubated inside 5% CO2 humidified incubator at 37° C. One hour post addition and 37° C. incubation of Matrigel-cells suspension, 50 μl of complete growth medium was added to cover the solidified Matrigel-cells mixture. The following day and, every third day, the three-dimensional cultures received 50 μl of fresh complete growth medium without or with specified reagents as listed in the figure descriptions. On Day 8 of culture, differential interference contrast (DIC) images were captured of 8 representative organoids from each well, using light microscopy at 30× objective (Olympus IX70, Canada). […] Number of smooth surfaced organoids without any protrusions, designated as “spherical” were counted out of eight representative images in each well and then percentage of spherical organoids in each condition were plotted in bar graphs. Each experiment was performed at least three independent times for statistical analyses.
# lubricin (PRG4) mRNA = assay: PRG4 mRNA expression in CAFs and ex vivo HCC specimens; type: cell-based, human
# Procedure: RNA extraction and cDNA synthesis: […] of frozen ex-vivo treated HCC tissues were ground with a mortar-pestle in the presence of liquid nitrogen until a thin powder was obtained. The ground tissues were lysed with 0.5-1 ml of RLT buffer+1% (BME) and then processed according to the manufacturer's recommendations (RNeasy kit, Qiagen). […] The obtained RNA was assayed for quality and concentration using the NanoDrop 2000/2000c (Thermo Fisher Scientific). cDNA was synthetized using the High Capacity cDNA reverse transcription kit (Thermo Fisher Scientific), according to relative datasheet.
# Real time PCR: One ng/μl of cDNA was used in total 20 μl reaction mix in the presence of 500 nM of each forward and reverse primer referred to a specific gene of interest, and 2×SYBR green master mix (Bio-Rad). The reaction was conducted in a CFX96 Touch Real-Time Detection System (Bio-Rad).
# CAFs isolation: Immediately after surgical resection, HCC tumoral and peritumoral specimens were minced into 0.5-1 cm pieces and left in MACS Tissue Storage Solution (Miltenyi Biotec). The tissues were then further cut into smaller size pieces (1-2 mm), washed three times in Hanks balanced salt solution (HBSS), and then incubated in HBSS in the presence of type IV collagenase (Thermo Fisher Scientific) and 3 mM CaCl2 at 37° C. under gentle rotation for 4 hours. At the end of this step, the dissociation was mechanically facilitated by pipetting up-down the digested tissues with a large size orifice 50 ml pipette. The floating cells were collected and washed three times with HBSS and seeded in normal culture conditions in IMDM+20% FBS. The decanted, partially digested tissue specimens were subjected to a second round of digestion (as previously described). The resulting dissociated cells were washed with HBSS and cultured in IMDM+20% FBS. […] The presence of minimal contaminating non-fibroblastic cells (mostly cancerous hepatocytes, cholangiocytes and macrophages) was evaluated using antibodies to EpCAM, CD45, and CD11b.
# [2] = system: HCC cells (HLE, HLF, PLC/DC/19, Hep3B, PLC/PRF/5); assay: 72-hour proliferation assay, all HCC cells; type: cell-based, human; details: Homo sapiens, same experimental conditions
# Procedure: (§1) Proliferation assay: In 100 μl complete medium, 3,000 cells were seeded in wells of a 96-well plate and left overnight to allow complete attachment. The next day (at time t=0 hours), the medium was removed and replaced with 100 μl of fresh medium in the presence/absence of Sorafenib (2.5 μM), Regorafenib (2.5 μM), rhPRG4 (12.5 to 100 μg/ml). Dimethyl sulfoxide (DMSO) and PBS+0.01% Tween-20 were used as vehicles of Sorafenib/Regorafenib, and rhPRG4, respectively. Cells in triplicate wells for each cell line were fixed at t=0 hours with 4% paraformaldehyde (PFA, pH 7.6, 10 min incubation), then stained with crystal violet (CV) and thoroughly washed to remove the excess staining. After 72 hours, the cells were fixed by adding 100 μl of 4% PFA directly to the medium (2% final PFA concentration, 20 min incubation), and processed for CV staining as previously described. Then, 100 or 200 μl of 1% sodium dodecyl-sulphate were added to the wells and the plates were left under shaking until complete CV release from stained cells. Optical density was at 595 nm wavelength measured using a plate reader.
# CD44-shRNA HCC cells = assay: 72-hour proliferation assay, CD44-silenced HCC cells; type: cell-based, human; details: 2.5 μM drug; rhPRG4 0 to 100 μg/ml; p<0.05 to p<0.001
# From the text: Stable CD44 silencing: HLE and HLF cell lines were transduced with lentiviral particles carrying control non-targeting (V), or specific CD44-targeting shRNA sequences (A to D), and selected with puromycin dihydrochloride (Thermo Fisher Scientific) to obtain stable CD44 silencing, according to manufacturer instructions (OriGene Technologies, Inc., Rockville, Md. 20850, USA). Control-shRNA sequence (V) and CD44-shRNA sequence B were used in all the experiments involving CD44 downregulation.
# as §1, with “After 72 hours, the cells were fixed by adding 100 μl of 4% PFA directly to the medium (2% final PFA concentration, 20 min incubation), and processed for CV staining as previously described. Then, 100 or 200 μl of 1% sodium dodecyl-sulphate were added to the wells and the plates were left under shaking until complete CV release from stained cells.” left out
# CD44-IgG1Fc = molecular target: T1, CD44-IgG1Fc (Homo sapiens, UniProt P16070); assay: Direct ELISA: binding of coated macromolecules to CD44-IgG1Fc; details: for percentage binding to CD44 of enzyme-digested rhPRG4 compared to untreated control: coating 30 μg/mL, digestion 16 hours at 37° C.
# T1 construct: purchased R & D systems
# T1 sequence (P16070 with tags, fused parts or gaps limits assumed): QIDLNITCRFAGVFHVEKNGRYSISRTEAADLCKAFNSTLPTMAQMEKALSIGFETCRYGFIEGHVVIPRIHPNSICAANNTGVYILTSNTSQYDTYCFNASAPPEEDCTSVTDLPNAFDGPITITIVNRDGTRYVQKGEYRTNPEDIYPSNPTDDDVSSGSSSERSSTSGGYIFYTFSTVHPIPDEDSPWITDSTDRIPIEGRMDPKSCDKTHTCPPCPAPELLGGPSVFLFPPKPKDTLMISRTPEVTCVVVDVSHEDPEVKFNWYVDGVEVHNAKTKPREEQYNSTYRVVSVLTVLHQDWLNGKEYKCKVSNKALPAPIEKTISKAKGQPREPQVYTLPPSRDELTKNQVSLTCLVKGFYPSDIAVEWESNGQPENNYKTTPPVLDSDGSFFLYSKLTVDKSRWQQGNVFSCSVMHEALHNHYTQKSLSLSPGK
# Procedure: High-binding microtiter plates (Corning, Sigma Aldrich, USA) were coated with rhPRG4 (Mr≅240 KDa), high molecular weight HA (HMW HA; Mr≅1,500 KDa) (R & D System, USA), medium molecular weight HA (MMW HA; Mr≅′300KDa) (R & D System) and vitronectin KDa) (Sigma Aldrich) at 400 μg/mL in PBS buffer (100 μL per well) overnight at 4° C. rhPRG4 is a full-length product produced by CHO-M cells (Lubris, Framingham, Mass., USA). Following washing with PBS+0.1% Tween 20, wells were blocked with 2% bovine serum albumin (BSA; 300 μL per well) for at least 2 hours at room temperature. CD44-IgG1Fc (R & D systems) or IgG1Fc (R & D systems), each at 1 μg/mL (100 μl per well), were added to the plate and incubated for 60 min at room temperature. Following washing with PBS+0.1% tween 20, anti-IgG1Fc-HRP (Sigma Aldrich) was added at 1:10,000 dilution (100 μL per well) and incubated for 60 min at room temp. Following washing with PBS+0.1% tween 20, the assay was developed using 1-step Turbo TMB ELISA reagent (ThermoScientific, USA) and absorbance was measured at 450 nm. The data represents an average of 4 independent assays, each with triplicate wells per group.
# The concentration-dependent binding of rhPRG4, HMW HA and MMW HA to CD44 was performed by coating microtiter plates with 400, 200, 100, 20, 4, 2 and 0.1 μg/mL of the macromolecules. The assay was performed as described above. The absorbance values in the IgG1Fc wells were subtracted from the absorbance values in the CD44 IgG1Fc wells and the corrected CD44 IgG1Fc absorbance values were normalized to those of the 400 μg/mL rhPRG4 group and data was expressed as percentage binding to CD44. The concentration-dependent binding of rhPRG4, HMW HA and MMW HA to recombinant CD44 is depicted in FIG. 1B. […] The data represents an average of 4 independent assays, each with triplicate wells per group.
# rhPRG4 was digested using sialidase A (Prozyme, USA), O-glycosidase (New England Biolabs, USA) or a combination of sialidase A and O-glycosidase for 16 hours at 37° C. In the sialidase A digestion, 12 μL of the enzyme (1U/200 μL) was added to rhPRG4 in a total reaction volume of 180 μL and a rhPRG4 final concentration of 300 μg/mL. In the O-glycosidase digestion, 4.8 μL of the enzyme (40million units/mL) was added to rhPRG4 in a total reaction volume of 180 μL and a rhPRG4 final concentration of 300 μg/mL under non-denaturing conditions. In the sialidase-A and O-glycosidase digestion, the enzymes were used in volumes identical to the ones stated above and incubated with rhPRG4 in a total reaction volume and final rhPRG4 concentration as stated above. The effect of sialidase-A and O-glycosidase digestions on rhPRG4 apparent molecular weight was determined by SDS-PAGE using 4-12% Bis-Tris gel (NuPage, life technologies, USA). A total of 20 μL of rhPRG4 or enzyme-digested rhPRG4 was run under reducing conditions ([…] for 60 min) followed by staining using Gelcode Blue Stain (Thermo Scientific, USA). Binding of enzymatically digested rhPRG4 to CD44 was compared to undigested rhPRG4 using the direct ELISA approach described above and using an rhPRG4 coating concentration of 30 μg/mL. Data represents the average of 4 independent experiments, each with triplicate wells per group.
# MDA-MB-231 cells = assay: In vitro trans-well invasion assay; type: cell-based, human; details: 100 pM TGFβ; 400 μg/mL LMWHA
# Procedure: Overnight 0.2% FBS-containing DMEM incubated, i.e. serum-starved, MDA-MB-231 cells were used for the transwell invasion using polycarbonate filters (24-well insert, pore size 8 μm; BD Biosciences, Canada). Prior to addition of cells, each insert was placed within a well of a 24-well tissue culture plate and equilibrated with 0.5 mL serum-free DMEM, added both to the upper and lower chambers at 37° C. for 2 h. The equilibration media was then gently removed and upper chamber surface of the insert was coated with 50 μL of 3% Matrigel and allowed to solidify at 37° C. for 1 h. 1×10^5 serum-starved MDA-MB-231 cells were resuspended in 0.5 mL of serum-free DMEM and added to the upper Matrigel-coated chamber. 500 μL complete growth medium alone or containing specific reagents, as described in the respective figure descriptions, was added to the lower chambers. Cells were allowed to invade the matrix for 12 h at 37° C. after which non-adherent cells were removed by PBS washing of cell layers on the upper chamber three times. During the second wash a cotton tip applicator was used to gently scrape away the adherent cells on the upper surface of the membrane. Invading cells were fixed by immersing the transwell inserts in 100% methanol for 10 minutes at −20° C., followed by staining with 0.5% crystal violet dye (EMD Millipore, Canada) for 1 h at room temperature. Eight randomly chosen fields of each stained membrane were imaged at 10× objective of a DIC microscope (Olympus IX70) coupled to a digital camera. Cell numbers were obtained by counting the number of crystal violet stained cells in each field using a handheld counter. The average cell numbers for all images per treatment conditions were calculated and used for further statistical analysis. Each experiment was performed at least three independent times.
molecule,measurement,setting,value
"Cc1cc(=O)oc2cc(O)ccc12 [4-MU, 4-methylumbelliferone, reference compound]",TGFβ-induced invasive growth of organoids,"[1]; 100 pM TGFβ, 8-day, KI 10 μM",suppressed TGFβ-induced invasive growth
"NC(=O)c1ccc(-c2nc(-c3ccc4c(c3)OCO4)c(-c3ccccn3)[nH]2)cc1 [KI, SB431542, reference compound]",TGFβ-induced invasive growth of organoids,"[1]; 100 pM TGFβ, 8-day, KI 10 μM",suppressed the TGFβ-induced invasive growth
same,LMWHA-induced invasive growth of organoids,"[1]; LMWHA 10-400 μg/mL, 100 μg/mL rhPRG4, KI 10 μM",could not reverse the LMWHA effect
"Cc1cccc(-c2nn3c(c2-c2ccnc4ccc(C(N)=O)cc24)CCC3)n1 [LY2157299, galunisertib]",expression of lubricin in comparison to controls,"lubricin (PRG4) mRNA; LY2157299 alone, 48 hours",downregulated the expression of lubricin
same,effect on TGFβ-enhanced expression of lubricin,"lubricin (PRG4) mRNA; TGFβ plus LY2157299, 48 hours, p<0.01",offset this effect
CNC(=O)c1cc(Oc2ccc(NC(=O)Nc3ccc(Cl)c(C(F)(F)F)c3)c(F)c2)ccn1 [Regorafenib],IC50,[2],~5 µM
same,capacity in inhibiting cells proliferation in CD44 silenced cells compared to control cells,CD44-shRNA HCC cells,significantly reduced
O-glycosidase digested rhPRG4: rhPRG4 digested using O-glycosidase for 16 hours at 37° C.,percentage binding to CD44 of enzyme-digested rhPRG4 compared to untreated control,CD44-IgG1Fc,significant increase
"Sodium Hyaluronate [LMWHA, reference compound]","invasive growth of organoids, stimulus alone","[1]; 100 pM TGFβ, LMWHA 10, 100 or 400 μg/mL, 8-day",increase the proportion of invasive organoids
same,"invasion of cells, stimulus alone vs untreated control",MDA-MB-231 cells,increased the proportion of invading cells
sialidase-A and O-glycosidase-digested rhPRG4: rhPRG4 digested using a combination of sialidase A and O-glycosidase,percentage binding to CD44 of enzyme-digested rhPRG4 compared to untreated control,CD44-IgG1Fc,significantly higher
sialidase-A digested rhPRG4: rhPRG4 digested using sialidase A for 16 hours at 37° C.,percentage binding to CD44 of enzyme-digested rhPRG4 compared to untreated control,CD44-IgG1Fc,significant increase
"vitronectin: vitronectin (Sigma Aldrich), shares sequence homology with lubricin [reference compound]",450 nm absorbance in the CD44-IgG1Fc group vs the IgG1Fc group,"CD44-IgG1Fc; wells coated at 400 μg/mL, CD44-IgG1Fc or IgG1Fc at 1 μg/mL",no significant difference
